Measured values reported in article PMC12858405, “Ideal efficacy photoswitching for chromocontrol of TRPC4/5 channel functions in live tissues” (Nature Chemical Biology, 2026).

Molecular target: T1, mouse TRPC5 (Mus musculus, UniProt Q9QX29)
T1 construct: expressed in transfected cells; host or cells: HEK293 (ATCC CRL 1573), stably transfected, tetracycline-induced
T1 sequence (Q9QX29 1-975): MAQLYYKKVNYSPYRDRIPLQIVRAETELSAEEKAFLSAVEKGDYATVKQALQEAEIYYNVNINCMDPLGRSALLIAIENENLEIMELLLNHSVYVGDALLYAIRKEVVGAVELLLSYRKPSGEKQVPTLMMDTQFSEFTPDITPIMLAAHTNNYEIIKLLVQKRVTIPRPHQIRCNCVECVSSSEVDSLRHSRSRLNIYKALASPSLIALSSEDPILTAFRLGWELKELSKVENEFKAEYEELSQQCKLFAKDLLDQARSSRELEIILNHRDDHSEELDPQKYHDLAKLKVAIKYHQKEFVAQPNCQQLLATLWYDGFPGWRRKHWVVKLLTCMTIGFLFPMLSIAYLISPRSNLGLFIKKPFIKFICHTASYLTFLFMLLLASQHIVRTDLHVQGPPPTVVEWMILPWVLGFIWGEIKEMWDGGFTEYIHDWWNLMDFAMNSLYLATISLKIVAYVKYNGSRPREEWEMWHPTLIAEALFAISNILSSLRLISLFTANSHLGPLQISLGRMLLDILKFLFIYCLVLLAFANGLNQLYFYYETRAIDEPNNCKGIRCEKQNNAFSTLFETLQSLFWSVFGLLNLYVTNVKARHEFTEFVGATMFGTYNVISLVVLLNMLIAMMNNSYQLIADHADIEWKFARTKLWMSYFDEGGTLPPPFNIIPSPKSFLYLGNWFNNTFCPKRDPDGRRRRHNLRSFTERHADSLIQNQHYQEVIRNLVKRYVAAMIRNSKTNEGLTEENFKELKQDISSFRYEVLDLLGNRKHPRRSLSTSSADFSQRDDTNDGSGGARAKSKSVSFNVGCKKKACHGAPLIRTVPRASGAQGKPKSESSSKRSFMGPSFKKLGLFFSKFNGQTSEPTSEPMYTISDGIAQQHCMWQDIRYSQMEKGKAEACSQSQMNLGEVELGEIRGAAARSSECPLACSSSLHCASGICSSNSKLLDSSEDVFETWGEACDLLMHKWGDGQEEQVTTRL
Assay: FLIPR Ca2+ influx assay (Fluo-4) with 365/447 nm photoswitching, HEK293 stably expressing mouse TRPC5
Format: cell-based
Settings: for EC50: Z* = mostly-Z PSS under 365 nm LED, Fluo-4-loaded cells, read-out: Agonistic EC50 (365 nm) TRPC5; for Activity on TRPC5 in FLIPR screening: 365/447 nm cycles
Source text: We initially screened for the photoswitchability of activity in cells using a fluorometric imaging plate reader (FLIPR) calcium flux assay, with HEK293 cells stably expressing mouse TRPC4β or mouse TRPC5. Note, however, that the parallel-throughput FLIPR setup is limited to use fixed light-emitting diodes at 365 nm (good Z) and 447 nm (suboptimal E), which, combined with the slowness of the onset and recovery of the fluorescence readout for calcium, causes the FLIPR results to underestimate the reagents’ true speed, degree and completion of TRPC chromocontrol (shown later). […]
3 Cultured Cell Lines (primarily for Fig. 1 and Fig. 2)
3.1 FLIPR Ca2+ influx assay in cell suspensions.
We initially screened for photoswitchability of activity in cells, using a fluorometric imaging plate reader (FLIPR) calcium flux assay, with human embryonic kidney cell line HEK293 stably transfected to express mouse TRPC4β- or TRPC5-CFP fusion protein (HEKmTRPC4β-CFP / HEKmTRPC5-CFP, HEK293 obtained from ATCC CRL 1573). The FLIPR setup provides high-content data, but it is limited to using LED wavelengths of 365 nm (best-Z) and 447 nm (suboptimal-E), while imaging at 470 nm excitation (Fluo-4 AM as Ca2+ indicator; this imaging light counteracts both PSSs). Therefore, we expected the FLIPR results to under-estimate the true chromocontrol power accessible to the reagents.
Cells were grown to 70%-90% confluency in a 75-cm2 culture flask, trypsinised, washed and resuspended in BSA-containing (0.1%) HBS, and supplemented with 3 µM Fluo-4/AM. Stably TRPC-transfected cells were induced with tetracycline 24 h prior to the experiments.42,43 After incubation at 37°C for 30 min [Fluo-4 loading], cells were again washed, resuspended, and dispensed (40 µl/well) into black pigmented, clear-bottom 384-well plates (Greiner µ-clear). To image the Fluo-4 fluorescence during the application and photoswitching of test compounds, these plates were first mounted to a Tecan Fluent 480 (Tecan, Männedorf, Switzerland) liquid handling device, equipped with a 384-tip multichannel arm and a gripper arm. A custom-made plate-imaging device was used for photoswitching during fluorescence imaging, which features LED-based excitation modules (365 nm and 447 nm used here for photoswitching, and 470 nm used here for Fluo-4 readout) projected onto the bottom of the microwell plate, with a cooled scientific complementary metal oxide sensor (sCMOS) camera (Zyla 5.5, Andor, Belfast, UK) equipped with a Nokton 42.5 mm f/0.95 (Voigtlaender, Fürth, Germany) for detection. The LEDs were controlled with an Arduino device and constant current drivers (1 A for 365 and 470 nm LEDs; 3 A for 447 nm LED); detection was under the control of Micromanager 2.0 software. Compounds were serially diluted and applied to the Fluo-4-loaded cell suspensions inside this custom plate-imaging device, then fluorescence intensities (under 470 nm excitation) were continuously recorded during programmed illuminations e.g. with alternating 365 nm and 447 nm phases.
Concentration-response curves for the Z-isomers (channel activation) were then constructed from the maximal signals during 365 nm phases, after a suitable number of "priming" cycles to allow the system to reach stable performance (Supplementary Fig. 13).
All experiments were conducted as a minimum of 3 independent experiments with each experiment averaging data in technical duplicates. […]
Cellular TRPC5 photoswitching: HEK cell Ca2+ influx photomodulation […]
Supplementary Figure 12. […] All […]
four compounds' profiles are consistent with their being ideal efficacy photoswitches (representative traces from one experiment out of ≥3 independent experiments each run in technical duplicates). […]
log c [nM] log c [nM] log c [nM] log c [nM]
Supplementary Figure 13. Dose-response for Z*-AzPico, Z*-AzPico2, Z*-AzHC, and Z*-AzHC2 on TRPC5 and […]

EC50 [nM]	Effect of E isomer alone on TRPC5 (12 pM to […], before 365-nm illumination)	Activity on TRPC5 in FLIPR screening	SMILES
	no effect		Cn1c(=O)n(CCCO)c(=O)c2c1nc(Oc1ccc(/N=N/c3ccccc3)c(OC(F)(F)F)c1)n2Cc1ccc(Cl)cc1 [E-AzPico]
4		photoswitchable activity	Cn1c(=O)n(CCCO)c(=O)c2c1nc(Oc1ccc(N=Nc3ccccc3)c(OC(F)(F)F)c1)n2Cc1ccc(Cl)cc1 [AzPico]
6.4		photoswitchable activity	Cn1c(=O)n(CCCO)c(=O)c2c1nc(Oc1ccc(N=Nc3ccccc3)c(Cl)c1)n2Cc1ccc(Cl)cc1 [AzHC]

SMILES	EC50 [nM]	Effect of E isomer alone on TRPC5 (12 pM to […], before 365-nm illumination)	Activity on TRPC5 in FLIPR screening
Cn1c(=O)n(CCCO)c(=O)c2c1nc(Oc1ccc(/N=N\c3ccccc3)c(Cl)c1)n2Cc1ccc(Cl)cc1 [Z*-AzHC]	6.4		
